# According to patent US11208446B2, “Agents and methods for treating CBP-dependent cancers” (priority 2016, dated 2021):
# Entries after “also recorded” stand apart in the source; their conditions may differ. *: point of attachment. Biotin = O=C1N[C@H]2[C@H](CS[C@H]2CCCCC(=O)*)N1
# How the values were obtained:
# MOLM13 cells = assay: Confocal microscopy of intranuclear penetration of FITC-labelled peptide; type: cell-based; settings: 50 nM peptide, 20 minutes, human AML cell line
# Protocol: Confocal microscopy. Live confocal imaging was performed using the Leica SP8 confocal microscope and 63× objective with 1 μm z-stack images. Cells were applied to a poly-L-lysine coated chambered Nunc Lab-tek II slide and incubated for 2 hours at 37° C. Prior to imaging, FITC-conjugated peptides were added to cell suspensions at a concentration of 50 nM. Cells were counter-stained using Hoechst 33342 and Mitotracker Red CMX ROS (MProbes) for 10 minutes at a final dilution of 1:10,000 prior to imaging.
# purified CBP-KIX domain = target: T1, purified CBP-KIX domain (Homo sapiens, UniProt Q92793); assay: Microscale thermopheresis (MST) binding of FITC-conjugated peptides to purified KIX; settings: FITC-conjugated peptide at fixed concentration, KIX 0.015 to 50 μM, n=3
# T1 construct: Expression and purification of recombinant CBP KIX domain; GST (N, cleaved yes); made in house; host or cells: E. coli BL21(DE3)
# T1 sequence (Q92793 587-666 limits assumed): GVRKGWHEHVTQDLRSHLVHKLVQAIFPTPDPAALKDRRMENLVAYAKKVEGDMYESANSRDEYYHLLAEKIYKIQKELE
# Protocol: Expression and purification of recombinant CBP KIX domain. BL21(DE3) cells (Invitrogen) transformed with pGEX-KIX plasmid were induced at 37° C. with isopropyl β-D-1-thiogalactopyranoside for 3 hours. Cells were lysed in 50 mM Tris-HCl pH 7.3, 150 mM NaCl, 0.1% TWEEN-20, 1 mM DTT, 5 mM EDTA, supplemented with protease inhibitors described above and sonicated for ten minutes (15 sec on, 15 sec off, 40% amplitude) using the Misonix probe sonicator (Qsonica, Newtown, Conn.). Lysate was cleared by centrifugation for 1 h at 21,800×g at 4° C. Cleared lysate was incubated with 4 mL glutathione agarose resin slurry (GoldBio) for 1 h at 4° C. to capture GST-KIX. Resin was washed four times with 50 mM Tris-HCl pH 7.4, 150 mM NaCl. KIX domain was cleaved from GST by incubation of resin-bound GST-KIX with 160 U thrombin (GE Healthcare) overnight at room temperature. Resin was centrifuged at 500×g for 5 min. Supernatant containing cleaved KIX was collected and dialyzed at 4° C. against 50 mM MOPS pH 6.5, 50 mM NaCl, 10% glycerol, 1 μM tris-2-carboxyethylphosphine. KIX was purified using a linear gradient of 50 mM to 1 M NaCl by cation exchange chromatography using MonoS 5/50 GL column (GE Healthcare). Fractions containing purified KIX were dialyzed against 50 mM potassium phosphate pH 5.5, 150 mM NaCl, 10 μM tris-2-carboxyethylphosphine, 30% glycerol, and stored at −80° C. […]
# [1] = target: T2, CBP in MV411 human AML cells (Homo sapiens, UniProt Q92793); assay: Streptavidin affinity purification (pull-down) of CBP with biotinylated peptides, Western blot; type: binding; settings: AML cell lysates, competition with non-biotinylated peptide
# T2 construct: endogenous in cells; host or cells: MV411 human AML cells (lysate)
# T2 sequence (Q92793 whole entry): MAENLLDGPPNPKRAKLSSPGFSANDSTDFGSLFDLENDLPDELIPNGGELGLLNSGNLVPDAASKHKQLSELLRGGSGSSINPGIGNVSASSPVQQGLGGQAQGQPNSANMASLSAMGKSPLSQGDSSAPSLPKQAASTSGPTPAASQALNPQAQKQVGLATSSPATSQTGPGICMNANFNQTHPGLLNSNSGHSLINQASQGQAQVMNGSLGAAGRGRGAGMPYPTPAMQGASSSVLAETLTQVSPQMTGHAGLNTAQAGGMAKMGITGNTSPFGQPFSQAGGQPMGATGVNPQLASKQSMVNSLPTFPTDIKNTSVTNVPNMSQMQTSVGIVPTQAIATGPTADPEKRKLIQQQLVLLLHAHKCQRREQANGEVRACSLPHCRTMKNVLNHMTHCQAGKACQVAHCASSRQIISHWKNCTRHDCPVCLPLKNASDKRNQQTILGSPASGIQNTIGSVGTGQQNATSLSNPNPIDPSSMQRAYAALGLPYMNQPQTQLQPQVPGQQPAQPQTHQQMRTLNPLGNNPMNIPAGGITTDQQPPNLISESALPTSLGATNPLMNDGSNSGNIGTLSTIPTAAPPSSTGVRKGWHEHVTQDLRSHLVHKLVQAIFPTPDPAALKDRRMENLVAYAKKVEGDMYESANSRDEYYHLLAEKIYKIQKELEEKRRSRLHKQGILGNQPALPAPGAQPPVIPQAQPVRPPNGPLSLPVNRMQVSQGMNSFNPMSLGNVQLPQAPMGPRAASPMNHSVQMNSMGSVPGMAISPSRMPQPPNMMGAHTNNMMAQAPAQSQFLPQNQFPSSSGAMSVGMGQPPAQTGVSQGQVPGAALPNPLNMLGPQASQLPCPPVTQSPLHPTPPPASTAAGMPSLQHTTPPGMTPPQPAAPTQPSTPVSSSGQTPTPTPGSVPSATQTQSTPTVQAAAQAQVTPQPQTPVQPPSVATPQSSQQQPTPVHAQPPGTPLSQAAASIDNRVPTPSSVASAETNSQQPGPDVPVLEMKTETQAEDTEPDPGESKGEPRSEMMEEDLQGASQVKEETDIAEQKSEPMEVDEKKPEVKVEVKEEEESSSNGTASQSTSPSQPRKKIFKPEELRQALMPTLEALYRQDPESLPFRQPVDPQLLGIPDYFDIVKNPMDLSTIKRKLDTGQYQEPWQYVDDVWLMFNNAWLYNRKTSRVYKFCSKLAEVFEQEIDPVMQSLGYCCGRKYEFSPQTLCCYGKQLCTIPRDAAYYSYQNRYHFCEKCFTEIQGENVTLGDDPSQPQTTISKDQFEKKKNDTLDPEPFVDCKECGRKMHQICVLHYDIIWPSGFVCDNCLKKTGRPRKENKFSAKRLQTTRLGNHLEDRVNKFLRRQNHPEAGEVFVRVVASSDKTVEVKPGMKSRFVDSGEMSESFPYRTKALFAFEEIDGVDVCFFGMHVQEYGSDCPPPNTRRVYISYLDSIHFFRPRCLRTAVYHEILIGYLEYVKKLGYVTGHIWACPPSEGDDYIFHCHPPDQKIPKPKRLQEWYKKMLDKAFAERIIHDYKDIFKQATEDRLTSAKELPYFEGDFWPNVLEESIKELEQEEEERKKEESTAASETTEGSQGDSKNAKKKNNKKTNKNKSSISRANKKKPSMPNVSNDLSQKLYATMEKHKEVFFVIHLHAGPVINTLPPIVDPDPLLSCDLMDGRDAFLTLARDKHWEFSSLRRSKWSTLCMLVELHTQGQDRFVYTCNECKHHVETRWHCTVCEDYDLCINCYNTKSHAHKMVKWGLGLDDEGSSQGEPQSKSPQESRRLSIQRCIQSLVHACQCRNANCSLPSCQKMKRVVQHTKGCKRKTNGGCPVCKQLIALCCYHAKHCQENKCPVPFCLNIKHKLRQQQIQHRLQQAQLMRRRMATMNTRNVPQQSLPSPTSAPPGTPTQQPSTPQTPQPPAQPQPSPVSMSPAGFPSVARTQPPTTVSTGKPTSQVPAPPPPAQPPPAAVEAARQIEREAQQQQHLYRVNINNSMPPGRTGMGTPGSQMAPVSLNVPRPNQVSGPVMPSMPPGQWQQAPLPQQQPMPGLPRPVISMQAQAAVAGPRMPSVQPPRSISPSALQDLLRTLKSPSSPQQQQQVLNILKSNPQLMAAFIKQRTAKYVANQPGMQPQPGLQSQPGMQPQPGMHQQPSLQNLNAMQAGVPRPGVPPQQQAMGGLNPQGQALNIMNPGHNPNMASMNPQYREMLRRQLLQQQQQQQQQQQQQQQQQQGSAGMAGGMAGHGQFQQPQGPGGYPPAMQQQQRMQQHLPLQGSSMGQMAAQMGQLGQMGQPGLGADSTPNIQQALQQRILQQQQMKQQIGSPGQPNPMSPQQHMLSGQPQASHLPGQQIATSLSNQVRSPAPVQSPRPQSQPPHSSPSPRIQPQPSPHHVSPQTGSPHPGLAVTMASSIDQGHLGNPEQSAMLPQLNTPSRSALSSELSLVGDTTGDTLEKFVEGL
# Protocol: Western blot analysis. Cells were lysed in RIPA buffer (Thermo Fisher) supplemented with a protease inhibitor mix comprised of AEBSF (0.5 mM concentration, Santa Cruz, SC-202041B), Bestatin (0.01 mM concentration, Fisher/Alfa Aesar, J61106-MD), Leupeptin (0.1 mM concentration, Santa Cruz, SC-295358B), and Pepstatin (0.001 mM concentration, Santa Cruz, SC-45036A). Lysates were mechanically disrupted using Covaris S220 adaptive focused sonicator, according to the manufacturer's instructions (Covaris, Woburn, Calif.). Lysates were cleared by centrifugation for 15 min at 18,000×g and clarified lysates were quantified using the bicinchoninic acid assay (Pierce). Clarified lysates (20 μg of protein) were resolved using sodium dodecyl sulfate-polyacrylamide gel electrophoresis, and electroeluted using the Immobilon FL PVDF membranes (Millipore, Billerica, Mass., USA). Membranes were blocked using the Odyssey Blocking buffer (Li-Cor, Lincoln, Nebr., USA). […] Blotted membranes were visualized using secondary antibodies conjugated to IRDye 800CW or IRDye 680RD (Goat anti-rabbit, 1:15,000, and goat anti-mouse, 1:15,000) and the Odyssey CLx fluorescence scanner, according to manufacturer's instructions (Li-Cor, Lincoln, Nebr., USA). […]
# [2] = test system: MOLM13, MV411, ML2, and HL60 cell lines; assay: Cell viability, live cell count by Trypan blue exclusion; type: cell-based, human; settings: 10 μM and 20 μM every 48 hours for 6 days
# Protocol: Cell culture. The human AML lines MV411, MOLM13, ML2, and HL60 were obtained from the American Type Culture Collection (ATCC, Manassas, Va., USA). Umbilical cord blood was obtained from the New York Blood Center. The identity of all cell lines was verified by STR analysis (Genetica DNA Laboratories, Burlington, N.C., USA) and absence of Mycoplasma sp. contamination was determined using Lonza MycoAlert (Lonza Walkersville, Inc., Walkersville, Md., USA). Cell lines were cultured in 5% CO2 in a humidified atmosphere at 37° C. in RPMI medium supplemented with 10% fetal bovine serum (FBS) and antibiotics (100 U/ml penicillin and 100 μg/ml streptomycin). Cell viability analysis. Cells were resuspended and plated at a concentration of 2×10^5 cells in 200 μL in 96-well tissue culture plates. Media with peptides was replaced every 48 hours. To assess the number of viable cells, cells were resuspended in PBS and 10 μL mixed in a 1:1 ratio with 0.4% Trypan Blue (Thermo Fisher) and counted using a hematocytometer (Hausser Scientific, Horsham, Pa., USA). To assess viability using an ATP-based assay, cell viability was assessed using the CellTiter-Glo Luminescent Viability assay, according to the manufacturer's instructions (Promega). Luminescence was recorded using the Infinite M1000Pro plate reader using integration time of 250 milliseconds (Tecan).
# MYB:CBP complex = target: T3, MYB:CBP complex (Homo sapiens, UniProt Q92793); assay: Dissociation of MYB:CBP complex in AML cells (co-immunoprecipitation); type: cell-based
# T3 construct: endogenous in cells; host or cells: MV411 human AML cells
# T3 sequence (Q92793 2-2442 limits assumed, one chain of several): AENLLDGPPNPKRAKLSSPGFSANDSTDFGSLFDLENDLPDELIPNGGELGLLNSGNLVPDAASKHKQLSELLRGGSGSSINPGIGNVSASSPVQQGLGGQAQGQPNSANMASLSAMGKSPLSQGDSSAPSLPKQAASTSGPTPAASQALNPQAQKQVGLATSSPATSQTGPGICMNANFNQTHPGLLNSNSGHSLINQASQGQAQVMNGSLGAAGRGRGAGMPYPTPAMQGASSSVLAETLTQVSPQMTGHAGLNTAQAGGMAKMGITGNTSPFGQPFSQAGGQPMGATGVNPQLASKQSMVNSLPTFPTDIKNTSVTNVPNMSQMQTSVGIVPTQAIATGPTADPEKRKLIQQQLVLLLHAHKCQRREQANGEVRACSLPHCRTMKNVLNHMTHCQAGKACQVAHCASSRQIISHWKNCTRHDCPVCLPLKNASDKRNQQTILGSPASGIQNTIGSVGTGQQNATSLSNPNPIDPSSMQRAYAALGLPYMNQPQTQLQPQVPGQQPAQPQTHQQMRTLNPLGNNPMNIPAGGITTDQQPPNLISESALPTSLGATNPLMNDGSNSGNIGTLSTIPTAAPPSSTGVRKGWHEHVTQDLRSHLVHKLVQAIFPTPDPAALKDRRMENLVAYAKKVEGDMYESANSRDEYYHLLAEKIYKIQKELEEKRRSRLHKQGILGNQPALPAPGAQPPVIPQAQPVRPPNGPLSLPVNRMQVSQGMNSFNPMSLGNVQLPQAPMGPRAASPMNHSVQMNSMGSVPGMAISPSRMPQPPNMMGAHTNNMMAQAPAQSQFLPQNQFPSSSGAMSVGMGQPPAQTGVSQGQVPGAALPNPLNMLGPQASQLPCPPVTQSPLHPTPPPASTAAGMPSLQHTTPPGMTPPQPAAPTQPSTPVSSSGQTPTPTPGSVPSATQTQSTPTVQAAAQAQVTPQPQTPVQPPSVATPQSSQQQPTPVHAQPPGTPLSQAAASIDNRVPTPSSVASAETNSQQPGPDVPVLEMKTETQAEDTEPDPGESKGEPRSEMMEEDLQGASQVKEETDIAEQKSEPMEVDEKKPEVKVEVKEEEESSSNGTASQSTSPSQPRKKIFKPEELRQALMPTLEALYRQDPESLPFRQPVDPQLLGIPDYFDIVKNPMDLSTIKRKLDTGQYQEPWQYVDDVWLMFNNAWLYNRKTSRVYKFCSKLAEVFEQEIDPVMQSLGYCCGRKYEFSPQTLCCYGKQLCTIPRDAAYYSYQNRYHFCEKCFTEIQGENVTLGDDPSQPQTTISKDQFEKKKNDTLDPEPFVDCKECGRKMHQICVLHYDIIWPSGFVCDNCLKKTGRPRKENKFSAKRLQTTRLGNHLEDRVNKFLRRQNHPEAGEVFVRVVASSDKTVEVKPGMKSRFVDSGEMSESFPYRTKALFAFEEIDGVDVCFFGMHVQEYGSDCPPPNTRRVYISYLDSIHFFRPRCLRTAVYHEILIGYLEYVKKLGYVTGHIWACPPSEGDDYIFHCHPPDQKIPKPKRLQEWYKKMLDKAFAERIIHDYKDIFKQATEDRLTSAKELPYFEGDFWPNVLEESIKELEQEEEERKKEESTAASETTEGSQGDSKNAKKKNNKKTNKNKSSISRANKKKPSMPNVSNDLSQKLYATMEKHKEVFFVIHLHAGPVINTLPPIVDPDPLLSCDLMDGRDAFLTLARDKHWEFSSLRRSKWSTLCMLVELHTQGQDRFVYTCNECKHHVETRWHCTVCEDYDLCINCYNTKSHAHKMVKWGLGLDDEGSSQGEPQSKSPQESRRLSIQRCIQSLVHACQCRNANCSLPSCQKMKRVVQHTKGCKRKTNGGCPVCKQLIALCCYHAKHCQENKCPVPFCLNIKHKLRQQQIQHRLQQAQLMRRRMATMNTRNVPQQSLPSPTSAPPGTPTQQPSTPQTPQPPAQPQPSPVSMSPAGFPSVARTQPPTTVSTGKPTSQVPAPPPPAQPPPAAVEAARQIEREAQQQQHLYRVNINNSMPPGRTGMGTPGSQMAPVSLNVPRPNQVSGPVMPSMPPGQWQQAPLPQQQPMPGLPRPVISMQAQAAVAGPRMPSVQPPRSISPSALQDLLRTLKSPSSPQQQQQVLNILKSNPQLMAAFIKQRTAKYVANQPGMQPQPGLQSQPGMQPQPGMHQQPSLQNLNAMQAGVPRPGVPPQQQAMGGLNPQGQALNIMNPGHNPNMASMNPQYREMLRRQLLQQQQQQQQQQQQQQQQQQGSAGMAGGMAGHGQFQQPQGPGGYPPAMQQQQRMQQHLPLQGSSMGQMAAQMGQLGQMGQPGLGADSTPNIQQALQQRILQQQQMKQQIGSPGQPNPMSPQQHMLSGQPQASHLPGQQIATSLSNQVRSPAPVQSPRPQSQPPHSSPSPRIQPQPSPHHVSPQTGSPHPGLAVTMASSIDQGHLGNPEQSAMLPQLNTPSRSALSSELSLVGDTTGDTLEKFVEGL
# Protocol: Co-immunoprecipitation analysis. 7.5 μg of indicated antibodies were conjugated to 1 mg M-270 Epoxy-coated magnetic beads (Invitrogen) according to manufacturer's instructions. 1×10^7 MV411 cells were collected and washed in cold PBS. Washed cell pellets were resuspended in 350 μL cold lysis buffer (50 mM Tris-HCl pH 7.4, 150 mM NaCl, 1 mM EDTA, 1 mM DTT, 0.5% Triton X-100, supplemented with protease inhibitors described above) and incubated on ice for 10 min. Cells were mechanically disrupted using the Covaris […] adaptive focused sonicator at 50 W peak power, 10% duty cycle, 200 cycles per burst at 4° C. for 300 sec. Lysate was clarified by centrifugation for 15 min at 18,000×g at 4° C. Supernatant (cleared lysate) was diluted in 1.05 mL dilution buffer (50 mM Tris-HCl, 150 mM NaCl, 1 mM EDTA, 1 mM DTT, 10% glycerol, supplemented with protease inhibitors described above for a total volume of 1.4 mL. Diluted lysate was added to 1 mg beads, and immunoprecipitation proceeded for 3 h at 4° C. with rotation. Beads were then washed with lysis buffer twice. Proteins were eluted in 20 μL EB buffer (Invitrogen) for 5 min at room temperature, and eluate was neutralized with 2 μL 1M Tris pH 11. Samples were prepared for Western blot by addition of Laemmli buffer with 50 mM DTT and incubation at 95° C. for 5 min. Presence of MYB and CBP was identified by Western blot as described above.
substance,measurement,setting,value
FITC-AHA-YGRKKRRQRRR-NH2 [FITC-TAT],intranuclear penetration (FITC-Hoechst overlay),MOLM13 cells,overlap of FITC and Hoechst in the nucleus
same,intranuclear penetration (FITC-Hoechst overlay),MOLM13 cells; listed as SEQ ID NO:6,intranuclear penetration
same,KD (apparent binding affinity to purified KIX),purified CBP-KIX domain,no interaction seen
Biotin-YGRKKRRQRRRGGKRIKELELLLMSTENELK-NH2 [BIOMYB],binding to / pull-down of CBP,[1],able to pull down CBP; also recorded: specific binding
acetyl-KLENETSMLLLELEKIRKGGRRRQRRKKRGYK-biotin-NH2 [RI-BIOMYB],binding to / pull-down of CBP,[1],specific binding
"[Ac]-KLGNETSMGLLELEKIGKGG-RRRQRRKKRGY-[NH2] [TG3, reference compound]",AML cell death (live cells on Day 6),[2],inactive
same,MYB:CBP complex in cells,MYB:CBP complex,inactive
